The source of these data is patent publication US20160220464A1 (WUHAN OPTICS VALLEY BRIDGEBIOMED INTERNATIONAL CORPORATION, priority 2013, published 2016).

Format in all cases: cell-based
Test [1] has as its target T1, bradykinin (BK) B2 receptors (Homo sapiens, UniProt P30411).
T1 construct: The cell strains used in the study were human primary vein endothelial cells (HPVEC) and human aortic smooth muscle cells (HASMC); endogenous in cells; host or cells: human primary vein endothelial cells (HPVEC) and human aortic smooth muscle cells (HASMC)
T1 sequence (P30411 1-391): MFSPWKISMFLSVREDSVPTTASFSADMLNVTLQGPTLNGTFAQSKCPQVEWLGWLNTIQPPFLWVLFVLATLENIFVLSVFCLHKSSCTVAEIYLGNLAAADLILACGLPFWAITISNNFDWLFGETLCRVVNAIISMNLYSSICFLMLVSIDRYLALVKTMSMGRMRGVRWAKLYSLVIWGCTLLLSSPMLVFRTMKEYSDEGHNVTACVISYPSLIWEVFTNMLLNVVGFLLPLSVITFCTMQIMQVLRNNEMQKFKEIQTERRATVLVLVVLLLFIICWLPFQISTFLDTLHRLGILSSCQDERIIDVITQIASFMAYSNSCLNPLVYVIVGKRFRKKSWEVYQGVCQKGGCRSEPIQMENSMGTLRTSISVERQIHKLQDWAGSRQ
The test can be described thus: PG secretion by BK B2 receptor agonists (PG kit, OD), EC50 and Emax. As to conditions: HASMC; for EC50: 1 h incubation at 37° C. Here is the method: Implantation Two cell lines were transferred into T-75 cell culture flask, and then the instructions of PG kit were strictly followed when cells have reached the appropriate density. Day 1 Cells were seeded in 24 well dishes with minimum medium and allowed to adhere overnight. Day 2 Cells were starved in the serum-free conditioned medium. Day 3 Minimum medium were used, and YLB-01, YLB-02 and YLB-03 were added to the medium, in which the concentration was 0.1 nM, 1 nM, 10 nM, 30 nM, 100 nM, 300 nM, 1 μM, 3 μM and 10 μM, respectively; the cells were incubated at 37° C. for 1 h. The supernatant was collected after incubation for later use. Day 4 24 well dishes were washed and then dyed for 45-90 min, and then the OD value was measured for analysis. The cell strains used in the study were human primary vein endothelial cells (HPVEC) and human aortic smooth muscle cells (HASMC).

Test [2] concerns human aortic smooth muscle cells (HASMC). The test can be described thus: PG subtype secretion by EIA in HASMC. As to conditions: 10 nM, 1 μM BK set as 100%.
Test [3] has as its system human primary vein endothelial cells (HPVEC). As to the kind of experiment: PG subtype secretion by EIA in HPVEC. As to conditions: 10 nM, 1 μM BK set as 100%. The protocol:
In order to study of prostaglandin subtypes secretion triggered by activation of B2 receptor by these three compounds, human primary vein endothelial cells (HPVEC) and human aortic smooth muscle cells (HASMC) were used for PG secretion, following the same protocol above; 10 nM of these compounds, YLB-1, YLB-2, YLB-3 was added. […] These percentage values above were all calibrated with respect to bradykinin.

The target of test [4] is T2, BK B2 receptor (Homo sapiens, UniProt P30411).
T2 construct: The cell strains used in the study were human primary vein endothelial cells (HPVEC) and human aortic smooth muscle cells (HASMC); endogenous in cells; host or cells: human primary vein endothelial cells (HPVEC) and human aortic smooth muscle cells (HASMC)
T2 sequence (P30411 1-391): T1 sequence (P30411 1-391)
The test can be described thus: Relative amount of PG secretion in cell supernatant by enzyme immunoassay (EIA). As to conditions: 1 h, 1 μM BK set as 100%; for activation at 0.0001 µM: 0.1 nM; for activation at 0.001 µM: 1 nM; for activation at 0.01 µM: 10 nM; for activation at 0.03 µM: 30 nM; for activation at 0.1 µM: 100 nM; for activation at 0.3 µM: 300 nM. Here is the method:
YLB-01, YLB-02 and YLB-03 were selected for the study as described below in Table 1, and BK was used as control. Implantation Two cell lines were transferred into T-75 cell culture flask, and then the instructions of PG kit were strictly followed when cells have reached the appropriate density. Day 1 Cells were seeded in 24 well dishes with minimum medium and allowed to adhere overnight. Day 2 Cells were starved in the serum-free conditioned medium. […] The supernatant was collected after incubation for later use. Day 4 24 well dishes were washed and then dyed for 45-90 min, and then the OD value was measured for analysis. […] In order to detect endogenous prostaglandin, enzyme immunoassay (EIA) was used to determine the amount of prostaglandin and subtypes thereof in the cell supernatant described above.

Test [5] deals with T3, B2 receptor (Homo sapiens, UniProt P30411).
T3 construct: The cell strains used in the study were human primary vein endothelial cells (HPVEC) and human aortic smooth muscle cells (HASMC); endogenous in cells; host or cells: human primary vein endothelial cells (HPVEC) and human aortic smooth muscle cells (HASMC)
T3 sequence (P30411 1-391): T1 sequence (P30411 1-391)
The test can be described thus: Relative PG secretion with B2 receptor inhibitor HOE-140. As to conditions: 1 μM BK set as 100%. The protocol: Two different cell lines were transferred into T-75 cell culture flask, and then the instructions of PG kit were strictly followed when cells have reached the appropriate density. Day 1. Cells were seeded in 24 well dishes with minimum medium and allowed to adhere overnight. Day 2. Cells were starved in the serum-free conditioned medium. Day 3. […] Cells were incubated at 37° C. for 1 h. The supernatant was collected after incubation for later use. Day 4. 24 well dishes were washed and then dyed for 45-90 min, and then the quantitative analysis was carried out.

Read-outs that look alike come from different tables or passages of the source. Where no end group is shown, it is not given here.

Compound `COc1nc2c(OCc3c(Cl)ccc(N(C)C(=O)CNC(=O)CCc4ccc(NC(C)=O)nc4)c3Cl)cccc2n1Cc1ccccn1` [YLB-02] had an EC50 in test [1] of 40.6 ± 4.19 nM. Further, the Emax in test [1] (relative to BK, read-out: Emax) is 70%; in test [1] (relative to BK), 70.44 ± 5.06%. In addition, the PGD2 entry in test [2] and in test [3] was “undetectable” in each case. Also, the PGE2 in test [2] is recorded as 26.33 ± 6.78%; in test [3], 34.15 ± 9.54%. Moreover, the PGF-2a in test [2] is recorded as 7.1 ± 3.41%; in test [3], “undetectable”. Moreover, in test [4], the activation at 0.0001 µM was found to be 0%. This compound also yielded an activation at 0.001 µM in test [4] of 15.2 ± 3.36%. The compound further registered an activation at 0.01 µM in test [4] of 26.4 ± 6.06%. For the same compound, the activation at 0.03 µM in test [4] was around 40%. For the same compound, the activation at 0.1 µM in test [4] turned out to be 65.6 ± 8.1%. For the same compound, in test [4], the activation at 0.3 µM was 67.3 ± 7.02%. In test [4], this compound showed an activation at 1 µM of 66.9 ± 8.11%. In test [4], the activation at 3 µM stood at 70.4 ± 5.06%. For the same compound, the activation at 10 µM in test [4] is 65.5 ± 5.78%. The “Relative PG Secretion Amount with 1 μM HOE-140” value (shortened to “Relative PG Secretion Amount”) in test [5] (agonist 0.1 nM + HOE-140 1 μM) amounted to 3.65 ± 2.77%; in test [5] (agonist 1 nM + HOE-140 1 μM), 0.21 ± 4.42%; in test [5] (agonist 10 nM + HOE-140 1 μM), 5.60 ± 3.43%; in test [5] (agonist 30 nM + HOE-140 1 μM) it was 3.33 ± 1.88%; in test [5] (agonist 100 nM + HOE-140 1 μM), 0.43 ± 4.16%; in test [5] (agonist 300 nM + HOE-140 1 μM) it was 1.05 ± 2.39%. In addition, the “Relative PG Secretion Amount” value in test [5] (agonist 1 μM + HOE-140 1 μM) is on record as 2.87 ± 3.04%; in test [5] (agonist 3 μM + HOE-140 1 μM), 4.25 ± 2.06%; in test [5] (agonist 10 μM + HOE-140 1 μM), 10.1 ± 4.43%.
As to `CNC(=O)N1CCN(CCC(=O)NCC(=O)N(C)c2ccc(Cl)c(COc3cccc4c3nc(OC)n4Cc3ccccn3)c2Cl)CC1` [YLB-03, 4-{2-[({[2,4-Dichloro-3-(2-methoxy-1-pyridin-2-ylmethyl-1H-benzoimidazol-4-yloxymethyl)-phenyl]-methyl-carbamoyl}-methyl)-carbamoyl]-ethyl}-piperazine-1-carboxylic acid methylamide], the EC50 in test [1] stood at 26.2 ± 2.87 nM. In addition, in test [1] (relative to BK, read-out: Emax), the Emax was 103%. Moreover, the Emax in test [1] (relative to BK) was found to be 103.48 ± 9.06%. Besides, in test [2], the PGD2 result is given as “undetectable”, the PGE2 is on record as 27.83 ± 10.66% and the PGF-2a turned out to be 8.43 ± 3.57%. Also, in test [3], the PGD2 result was “undetectable”, the PGE2 is 31.04 ± 8.49% and the PGF-2a result was “undetectable”. In test [4], the activation at 0.0001 µM is 0.44 ± 1.22%, the activation at 0.001 µM turned out to be 10.3 ± 2.3%, the activation at 0.01 µM worked out at 47.3 ± 4.22% and the activation at 0.03 µM is around 55%. In test [4], this compound registered an activation at 0.1 µM of 71 ± 4.57%, an activation at 0.3 µM of 86.2 ± 8.51%, an activation at 1 µM of 85 ± 4.83% and an activation at 3 µM of 95.6 ± 7.21%. For the same compound, the activation at 10 µM in test [4] came to 103 ± 9.06%. In test [5] (agonist 0.1 nM + HOE-140 1 μM), the “Relative PG Secretion Amount” value amounted to 0.54 ± 3.59%. For the same compound, the “Relative PG Secretion Amount” value in test [5] (agonist 1 nM + HOE-140 1 μM) was 2.65 ± 3.81%. Further, the “Relative PG Secretion Amount” value in test [5] (agonist 10 nM + HOE-140 1 μM) is given as 5.64 ± 4.05%. Further, the “Relative PG Secretion Amount” value in test [5] (agonist 30 nM + HOE-140 1 μM) is 4.90 ± 4.83%. Besides, in test [5] (agonist 100 nM + HOE-140 1 μM), the “Relative PG Secretion Amount” value amounted to 3.97 ± 2.75%. The “Relative PG Secretion Amount” value in test [5] (agonist 300 nM + HOE-140 1 μM) was 0.48 ± 3.50%. In addition, the “Relative PG Secretion Amount” value in test [5] (agonist 1 μM + HOE-140 1 μM) came out at 5.14 ± 2.67%. Moreover, the “Relative PG Secretion Amount” value in test [5] (agonist 3 μM + HOE-140 1 μM) came out at 7.33 ± 4.12%. Besides, in test [5] (agonist 10 μM + HOE-140 1 μM), the “Relative PG Secretion Amount” value came to 26.08 ± 7.56%.
For the compound “RPPGFSPFR [BK, Bradykinin, reference compound]”, the Emax in test [1] turned out to be 101 ± 5.5%.
